Patent publication US20260262643A1, “HERBICIDAL BENZOXAZINES” (FMC CORPORATION, priority 2022, published 2026)

What was measured:
barnyardgrass [1] = experiment: Test C preemergence; format: in vivo, Echinochloa crusgalli; settings: preemergence, 0 to 100 scale (0 no effect, 100 complete control)
Summary of the method: (§1)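 Greenhouse herbicide screen, 10-day duration. Test chemicals in solvent/surfactant blend were sprayed onto soil at sowing (pre) or onto 2–10 cm seedlings at one to two leaves (post); injury scored visually against controls, 0 no effect to 100 complete control.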

blackgrass [2] = experiment: Test C preemergence; format: in vivo, Alopecurus myosuroides; settings: preemergence, 0 to 100 scale (0 no effect, 100 complete control)
Summary of the method: as §1

corn [3] = experiment: Test C preemergence; format: in vivo, Zea mays; settings: preemergence, 0 to 100 scale (0 no effect, 100 complete control)
Summary of the method: as §1

foxtail, giant [4] = experiment: Test C preemergence; format: in vivo, Setaria faberi; settings: preemergence, 0 to 100 scale (0 no effect, 100 complete control)
Text: (§2) Seeds of plant species selected from barnyardgrass (Echinochloa crusgalli), blackgrass (Alopecurus myosuroides), corn (Zea mays), foxtail, giant (giant foxtail, Setaria faberi), green foxtail (Setaria viridis), goosegrass (Eleusine indica), kochia (Bassia scoparia), oat, wild (wild oat, Avena fatua), pigweed, palmer (palmer amaranth, palmer pigweed, Amaranthus palmeri), Pigweed, Redroot (redroot pigweed, Amaranthus retroflexus), ragweed (common ragweed, Ambrosia artemisiifolia), ryegrass, Italian ([…] ryegrass, Lolium multiflorum), soybean (Glycine max), and wheat (Triticum aestivum) were planted into a blend of loam soil and sand and treated preemergence with a directed soil spray using test chemicals formulated in a non-phytotoxic solvent mixture which included a surfactant. At the same time, plants selected from these crops and weed species and also galium (catchweed bedstraw, Galium aparine) and horseweed (Erigeron canadensis) were planted in pots containing the same blend of loam soil and sand and treated with postemergence applications of test chemicals formulated in the same manner. Plants ranged in height from 2 to 10 cm and were in the one- to two-leaf stage for the postemergence treatment. Treated plants and untreated controls were maintained in a greenhouse for 10 days, after which time all treated plants were compared to untreated controls and visually evaluated for injury. Plant response ratings, summarized in Table C, are based on a 0 to 100 scale where 0 is no effect and 100 is complete control. A dash (-) response means no test result.

kochia [5] = experiment: Test C preemergence; format: in vivo, Bassia scoparia; settings: preemergence, 0 to 100 scale (0 no effect, 100 complete control)
Summary of the method: as §1

oat, wild [6] = experiment: Test C preemergence; format: in vivo, Avena fatua; settings: preemergence, 0 to 100 scale (0 no effect, 100 complete control)
Summary of the method: as §1

pigweed, palmer [7] = experiment: Test C preemergence; format: in vivo, Amaranthus palmeri; settings: preemergence, 0 to 100 scale (0 no effect, 100 complete control)
Summary of the method: as §1

ragweed [8] = experiment: Test C preemergence; format: in vivo, Ambrosia artemisiifolia; settings: preemergence, 0 to 100 scale (0 no effect, 100 complete control)
Summary of the method: as §1

ryegrass, Italian [9] = experiment: Test C preemergence; format: in vivo, Lolium multiflorum; settings: preemergence, 0 to 100 scale (0 no effect, 100 complete control)
Summary of the method: as §1

soybean [10] = experiment: Test C preemergence; format: in vivo, Glycine max; settings: preemergence, 0 to 100 scale (0 no effect, 100 complete control)
Summary of the method: as §1

wheat [11] = experiment: Test C preemergence; format: in vivo, Triticum aestivum; settings: preemergence, 0 to 100 scale (0 no effect, 100 complete control)
Summary of the method: as §1

barnyardgrass [12] = experiment: Test C postemergence; format: in vivo, Echinochloa crusgalli; settings: 10 days, 0 to 100 scale (0 no effect, 100 complete control)
Summary of the method: as §1

blackgrass [13] = experiment: Test C postemergence; format: in vivo, Alopecurus myosuroides; settings: 10 days, 0 to 100 scale (0 no effect, 100 complete control)
Summary of the method: as §1

corn [14] = experiment: Test C postemergence; format: in vivo, Zea mays; settings: 10 days, 0 to 100 scale (0 no effect, 100 complete control)
Summary of the method: as §1

foxtail, giant [15] = experiment: Test C postemergence; format: in vivo, Setaria faberi; settings: 10 days, 0 to 100 scale (0 no effect, 100 complete control)
Text: as §2

kochia [16] = experiment: Test C postemergence; format: in vivo, Bassia scoparia; settings: 10 days, 0 to 100 scale (0 no effect, 100 complete control)
Summary of the method: as §1

oat, wild [17] = experiment: Test C postemergence; format: in vivo, Avena fatua; settings: 10 days, 0 to 100 scale (0 no effect, 100 complete control)
Summary of the method: as §1

pigweed, palmer [18] = experiment: Test C postemergence; format: in vivo, Amaranthus palmeri; settings: 10 days, 0 to 100 scale (0 no effect, 100 complete control)
Summary of the method: as §1

ragweed [19] = experiment: Test C postemergence; format: in vivo, Ambrosia artemisiifolia; settings: 10 days, 0 to 100 scale (0 no effect, 100 complete control)
Summary of the method: as §1

ryegrass, Italian [20] = experiment: Test C postemergence; format: in vivo, Lolium multiflorum; settings: 10 days, 0 to 100 scale (0 no effect, 100 complete control)
Summary of the method: as §1

soybean [21] = experiment: Test C postemergence; format: in vivo, Glycine max; settings: 10 days, 0 to 100 scale (0 no effect, 100 complete control)
Summary of the method: as §1

wheat [22] = experiment: Test C postemergence; format: in vivo, Triticum aestivum; settings: 10 days, 0 to 100 scale (0 no effect, 100 complete control)
Summary of the method: as §1

galium = experiment: Test C postemergence; format: in vivo, Galium aparine; settings: 10 days, 0 to 100 scale (0 no effect, 100 complete control)
Summary of the method: as §1

horseweed = experiment: Test C postemergence; format: in vivo, Erigeron canadensis; settings: 10 days, 0 to 100 scale (0 no effect, 100 complete control)
Summary of the method: as §1

barnyardgrass [23] = experiment: Test D flooded paddy test; format: in vivo, Echinochloa crus-galli; settings: 250 g ai/ha, applied to paddy water, visual rating after 13 to 14 days, scale 0 to 100 (0 no effect, 100 complete control)
Summary of the method: (§3)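 Seedlings reached the 2-leaf stage, then pots were flooded to 3 cm over the soil surface. Compound was applied into the water, depth was maintained, and plants stayed in the greenhouse 13 to 14 days before visual scoring (0–100) relative to controls.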

ducksalad = experiment: Test D flooded paddy test; format: in vivo, Heteranthera limosa; settings: 250 g ai/ha, applied to paddy water, visual rating after 13 to 14 days, scale 0 to 100 (0 no effect, 100 complete control)
Summary of the method: as §3

rice = experiment: Test D flooded paddy test; format: in vivo, Oryza sativa; settings: 250 g ai/ha, applied to paddy water, visual rating after 13 to 14 days, scale 0 to 100 (0 no effect, 100 complete control)
Summary of the method: as §3

sedge, umbrella = experiment: Test D flooded paddy test; format: in vivo, Cyperus difformis; settings: 250 g ai/ha, applied to paddy water, visual rating after 13 to 14 days, scale 0 to 100 (0 no effect, 100 complete control)
Summary of the method: as §3

CC(C)c1cc(C(=O)N2C[C@H](C)Oc3c(Cl)cccc32)cc(-n2cncn2)c1 [Compound 316]
Barnyardgrass plant response rating (barnyardgrass [1]; 500 g ai/ha): 90
Barnyardgrass plant response rating (barnyardgrass [1]; Test C, 125 g ai/ha): 30
Blackgrass plant response rating (blackgrass [2]; 500 g ai/ha): 90
Blackgrass plant response rating (blackgrass [2]; Test C, 125 g ai/ha): 50
Corn plant response rating (corn [3]; 500 g ai/ha): 40
Corn plant response rating (corn [3]; Test C, 125 g ai/ha): 10
Foxtail, Giant plant response rating (foxtail, giant [4]; 500 g ai/ha): 100
Foxtail, Giant plant response rating (foxtail, giant [4]; Test C, 125 g ai/ha): 80
Kochia plant response rating (kochia [5]; 500 g ai/ha): 0
Kochia plant response rating (kochia [5]; Test C, 125 g ai/ha): 0
Oat, Wild plant response rating (oat, wild [6]; 500 g ai/ha): 40
Oat, Wild plant response rating (oat, wild [6]; Test C, 125 g ai/ha): 20
Pigweed, Palmer plant response rating (pigweed, palmer [7]; 500 g ai/ha): 90
Pigweed, Palmer plant response rating (pigweed, palmer [7]; Test C, 125 g ai/ha): 60
Ragweed plant response rating (ragweed [8]; 500 g ai/ha): 0
Ragweed plant response rating (ragweed [8]; Test C, 125 g ai/ha): 0
Ryegrass, Italian plant response rating (ryegrass, Italian [9]; 500 g ai/ha): 90
Ryegrass, Italian plant response rating (ryegrass, Italian [9]; Test C, 125 g ai/ha): 70
Soybean plant response rating (soybean [10]; 500 g ai/ha): 50
Soybean plant response rating (soybean [10]; Test C, 125 g ai/ha): 0
Wheat plant response rating (wheat [11]; 500 g ai/ha): 20
Wheat plant response rating (wheat [11]; Test C, 125 g ai/ha): 0
Plant response rating, Barnyardgrass (barnyardgrass [12]; 500 g ai/ha, postemergence): 50
Plant response rating, Barnyardgrass (barnyardgrass [12]; Postemergence, 125 g ai/ha): 10
Plant response rating, Blackgrass (blackgrass [13]; 500 g ai/ha, postemergence): 70
Plant response rating, Blackgrass (blackgrass [13]; Postemergence, 125 g ai/ha): 50
Plant response rating, Corn (corn [14]; 500 g ai/ha, postemergence): 70
Plant response rating, Corn (corn [14]; Postemergence, 125 g ai/ha): 20
Plant response rating, Foxtail, Giant (foxtail, giant [15]; 500 g ai/ha, postemergence): 90
Plant response rating, Foxtail, Giant (foxtail, giant [15]; Postemergence, 125 g ai/ha): 10
Plant response rating, Kochia (kochia [16]; 500 g ai/ha, postemergence): 80
Plant response rating, Kochia (kochia [16]; Postemergence, 125 g ai/ha): 30
Plant response rating, Oat, Wild (oat, wild [17]; 500 g ai/ha, postemergence): 20
Plant response rating, Oat, Wild (oat, wild [17]; Postemergence, 125 g ai/ha): 0
Plant response rating, Pigweed, Palmer (pigweed, palmer [18]; 500 g ai/ha, postemergence): 60
Plant response rating, Pigweed, Palmer (pigweed, palmer [18]; Postemergence, 125 g ai/ha): 30
Plant response rating, Ragweed (ragweed [19]; 500 g ai/ha, postemergence): 0
Plant response rating, Ragweed (ragweed [19]; Postemergence, 125 g ai/ha): 0
Plant response rating, Ryegrass, Italian (ryegrass, Italian [20]; 500 g ai/ha, postemergence): 80
Plant response rating, Ryegrass, Italian (ryegrass, Italian [20]; Postemergence, 125 g ai/ha): 30
Plant response rating, Soybean (soybean [21]; 500 g ai/ha, postemergence): 100
Plant response rating, Soybean (soybean [21]; Postemergence, 125 g ai/ha): 100
Plant response rating, Wheat (wheat [22]; 500 g ai/ha, postemergence): 20
Plant response rating, Wheat (wheat [22]; Postemergence, 125 g ai/ha): 10
Plant response rating, Galium (galium; 500 g ai/ha, postemergence): 90
Plant response rating, Galium (galium; Postemergence, 125 g ai/ha): 40
Plant response rating, Horseweed (horseweed; 500 g ai/ha, postemergence): 0
Plant response rating, Horseweed (horseweed; Postemergence, 125 g ai/ha): 0
Plant response rating, Barnyardgrass (Flood) (barnyardgrass [23]): 0
Plant response rating, Ducksalad (Flood) (ducksalad): 0
Plant response rating, Rice (Flood) (rice): 0
Plant response rating, Sedge, Umbrella (Flood) (sedge, umbrella): 0
